The record followed here is US20150175644A1, “MANNOSE DERIVATIVES AS ANTAGONISTS OF BACTERIAL ADHESION” (UNIVERSITY OF BASEL, priority 2009, published 2015).

Each structure is given as a SMILES string.

The subject of data set [1] is E. coli (strain RS 218). The data set is described as follows: Preliminary clotting assay (E. coli-mediated clotting of C. albicans cells). The class given is cell-based. To be noted: minimal concentration that prevents clotting of C. albicans cells by E. coli RS 218; triplicate. The procedure: Overnight cultures of C. albicans (strain ATCC 60193) and E. coli (strain RS 218) are prepared by suspending colony material from agar plates in 10 ml trypticase soy broth (TSB) each and incubated for 16-18 h at 37° C., the culture of E. coli without shaking, but the culture of C. albicans with agitation on a horizontal shaker at 200 rpm. The cells of 2 ml of each culture are washed twice with 1 ml phosphate buffered saline (PBS) by centrifugation (10 min at 2500×g), discarding the supernatant and re-suspension of the cell pellet in fresh PBS. After the last washing step, the optical density at 600 nm is measured and adjusted to 5.0 for C. albicans (corresponding to approx. 5×10^7 viable cells/ml) and to 3.0 for E. coli (corresponding to approx. 5×10^9 viable cells/ml). […] Each test well is supplied with 33 μl PBS or the test solution of the desired concentration, and 33 μl of E. coli suspension is added and mixed by slightly tapping the plate. After 5 min 33 μl of C. albicans suspension is added to give a total volume of 100 μl per well. As a negative clumping control, one well is left without addition of E. coli. The plate is incubated for 20 min at 37° C. on a horizontal shaker at 150 rpm and the cells are allowed to settle for 10 min at r.t. before the wells are inspected with the help of a magnifier for visual clumps. For each substance the minimal concentration that prevents clotting of C. albicans cells is noted. Each experiment is performed in triplicate.

Data set [2] has as its system GFP tagged E. coli strain UTI89. The data set is described as follows: Flow cytometry inhibition assay (adherence of GFP tagged UTI89 to bladder cell line 5637). The class given is cell-based. To be noted: for IC50: Escherichia coli; for rIC50: ratio of IC50 to IC50 of reference HM, cell line 5637. The procedure: The GFP tagged E. coli strain UTI89 is statically incubated in Luria-Bertani broth for 24 h, washed twice and adjusted to an optical density at 600 nm (OD600) between 2.0 and 3.0. The human epithelial bladder carcinoma cell line 5637 was grown in RPMI 1640 medium, supplemented with 10% fetal calf serum (FCS), 100 U/ml penicillin and 100 μg/ml streptomycin at 37° C., 5% CO2 in 24-well plates. Cells were infected with 200 μl bacterial suspension (multiplicity of infection of 1:50 (cell:bacteria)), premixed with 25 μl of antagonists at different concentrations. To homogenize the infection, plates were centrifuged at room temperature for 3 min at 600 g. After an incubation of 1.5 h at 37° C., infected cells were washed four times with RPMI 1640 medium and suspended in ice-cold PBS for 5-20 min. Samples were measured with a CyAn ADP flow cytometer (Becton Dickinson, San Jose, Calif.) and analyzed by gating on the eukaryotic cells based on forward (FSC) and side scatter (SSC). A total of 10^4 cells were measured per sample. Data were acquired in a linear mode for the SSC and logarithmic mode for FSC and the green fluorescent channel FL1-H (e.g. GFP). The mean fluorescence intensity (MFI) of FL1-H was counted as a surrogate marker for the adherence of bacteria. Quantification of adhesion was evaluated with the FlowJo software 9.0.1 (Tree Star, Inc., Ashland, Oreg., USA). IC50 values were determined by plotting the concentration of the antagonist in a logarithmic mode versus the MFI and by fitting the curve with the prism software (GraphPad, inhibition curve, variable slope). The relative IC50 (rIC50) is the ratio of the IC50 of the test compound to the IC50 of the reference compound HM (n-heptyl α-D-mannopyranoside.
On the technique in general: In flow cytometry, cells or beads pass a laser one at a time.

In data set [3] the test system is E. coli strain UTI89. The data set is described as follows: Aggregometer assay (disaggregation of E. coli UTI89 from guinea pig erythrocytes). The class given is cell-based. The settings on record: relative to heptyl α-D-mannopyranoside (rIC50=1). As for the experimental part: In analogy to N. Firon, I. Ofek, N. Sharon, Biochem. Biophys. Res. Comm. 1982, 105, 1426-1432, the following assay is conducted: E. coli strain UTI89 is statically incubated in Luria-Bertani broth for 24 h, washed twice and adjusted to an optical density at 600 nm (OD600) of 4.0. The percentage of aggregation of UTI89 to guinea pig erythrocytes (GPE) is quantitatively measured using an APACT 4004 aggregometer (Endotell AG, Allschwil, Switzerland) at 740 nm, 37° C. under stirring at 1000 rpm. For calibration, first the protein poor plasma (PPP) is measured using PBS 1% and set as 100% aggregation, followed by the protein rich plasma (PRP) using GPE at an OD600 of 4.0, set as 0% aggregation. After calibration, the measurement is initiated using 250 μL GPE and 50 μL bacterial suspension. Following the aggregation phase of 600 s, 25 μL of the antagonists at different concentrations are added and disaggregation is monitored over 1400 s. The FimH-deleted mutant of E. coli UTI89 is used to proof FimH-specific GPE agglutination. For evaluation, the area under the disaggregation curve (AUC) is calculated and compared to the reference, heptyl α-D-mannopyranoside (see Table 2). The activities are reported as rel. IC50 (rIC50) with heptyl α-D-mannopyranoside as reference compound (rIC50=1).

Data set [4] is described as follows: In vivo pharmacokinetics, single dose, urine and plasma sampling. Set-up: species or system mouse. To be noted: single i.v. application of 50 mg/kg, applied antagonist detected. As for the experimental part: The aim is the identification of FimH antagonists suitable for intravenous (i.v.) or preferably peroral (p.o.) applications. Before infection studies in a mouse disease model could be performed, the in vivo pharmacokinetic parameters (Cmax, AUC) had to be determined, to ensure the antagonists availability in the target organ (bladder). Single-dose pharmacokinetic studies were performed by i.v. and p.o. application of the FimH antagonists at a concentration of 50 mg/kg followed by urine and plasma sampling. […] Antagonists were applied i.v. by injection into the tail vein and p.o. using a gavage followed by blood and urine sampling (10 μL) after 6 min, 30 min, 1 h, 2 h, 4 h, 6 h, 8 h and 24 h. Before analysis, proteins in blood and urine samples were precipitated using methanol and centrifuged for 11 min at 13,000 rpm. The supernatant was transferred into a 96-well plate and analyzed by LC-MS.

Consider `OC[C@H]1O[C@H](Oc2ccc(-n3ccc4ccccc43)cc2Cl)[C@@H](O)[C@@H](O)[C@@H]1O` [Compound 29a, 2-Chloro-4-(indol-1-yl)phenyl α-D-mannopyranoside], for which the “Average conc. to prevent clotting” value in data set [1] turned out to be 1.111 µM.
Turning to `O=[N+]([O-])c1ccc2c(ccn2-c2ccc(O[C@H]3O[C@H](CO)[C@@H](O)[C@H](O)[C@@H]3O)c(Cl)c2)c1` [Compound 29b, 2-Chloro-4-(5-nitroindol-1-yl)phenyl α-D-mannopyranoside], in data set [1], the “Average conc. to prevent clotting” value is 0.556 µM. Also, in data set [2], half-maximal inhibition (IC50) required 590 ± 45 nM and the rIC50 was determined as 0.15.
As for `OC[C@H]1O[C@H](Oc2ccc(-n3ccc4ccccc43)cc2F)[C@@H](O)[C@@H](O)[C@@H]1O` [Compound 32, 2-Fluoro-4-(indol-1-yl)phenyl α-D-mannopyranoside], the “Average conc. to prevent clotting” value in data set [1] is 5.556 µM.
Consider `O=[N+]([O-])c1ccc2c(ccn2-c2ccc(O[C@H]3O[C@H](CO)[C@@H](O)[C@H](O)[C@@H]3O)c(F)c2)c1` [Compound 34, 2-Fluoro-4-(5-nitroindol-1-yl)phenyl α-D-mannopyranoside], for which the “Average conc. to prevent clotting” value in data set [1] turned out to be 0.833 µM.
On to `CCCCCCCO[C@H]1O[C@H](CO)[C@@H](O)[C@H](O)[C@@H]1O` [HM, heptyl α-D-mannopyranoside, reference compound], for which the “Average conc. to prevent clotting” value in data set [1] worked out at 42 µM. The “rIC50 (measured in the aggregometer assay)” value in data set [3] is on record as 1. In data set [2], it took 3900 ± 1600 nM to reach half-maximal inhibition (IC50). Besides, the rIC50 in data set [2] is 1. The values for the AUC0-24 i.v. in data set [4] (plasma) and in data set [4] (urine) were 34.3 ± 33.3 µg·h/mL and 2469.3 ± 636.4 µg·h/mL, respectively.

The term IC50 denotes the concentration at which inhibition is half-maximal. Low values mean greater potency, high ones weaker potency.
